Test results from patent US20250304623A1, “PEPTIDES FOR INTRACELLULAR DELIVERY” (UNIVERSIDADE DE SANTIAGO DE COMPOSTELA, priority 2022, published 2025).
Starred links: 1 amine or outer side, 2 acyl side, 3 side chain; linkers in the order of their positions; H or OH if unused. Residues, ends and D or L forms follow the SMILES beside them. Groups on a side chain read outwards from the residue. *: point of attachment. Glutaryl = O=C(CCCC(=O)[*:2])[*:1]; X1 = CCCC/C=C\CCCCCCCC=NN*

Key:
[1] = system: Ai14 mice; assay: In vivo gene editing by Cre mRNA delivery, tdTomato fluorescence; settings: i.v.; 7 μg Cre mRNA; 1:1 and 5:1 mass ratio amphiphile:mRNA; 2 days
Protocol: In vivo gene editing enables localization and quantification of expression following Cre recombinase mRNA delivery in Ai14 mice, a reporter strain that expresses tdTomato fluorescence after Cre-mediated recombination.
The inventors evaluated the mRNA delivery efficiency of amphiphile by i.v. injections of an amphiphile-complexed Cre recombinase mRNA (CleanCap® Cre mRNA (5moU), TriLink, L-7211) in Ai14 mice. Amphiphilic molecule stock solutions were prepared in DMSO as described above. The solutions of mRNA/amphiphile complexes were freshly prepared prior to in vivo experiments. Amphiphile solutions in DMSO were mixed with mRNA solutions in a suitable buffer, such as PBS, or phosphate buffer enriched with inorganic salts (1:1 and 5:1 mass ratio, final amount of mRNA per mice=7 μg/mouse). The mixture was shaken for 30 min at room temperature before injection. For each mouse, 7 μg mRNA was complexed with 7.3(Leu-His) with myristoleyl aldehyde (7.3(Leu-His) M), and administered by i.v. injection in the tail vein in 100 μL of a suitable buffer, such as PBS, or phosphate buffer enriched with inorganic salts. As control, 7 μg of naked mRNA was injected in three mice. After 2 days, mice were sacrificed and were imaged to confirm tdTomato expression.

[2] = system: mice; assay: In vivo FLuc mRNA delivery, i.m. injection, bioluminescence imaging
Protocol: In vivo bioluminescence imaging (BLI) enables localization and quantification of expression following mRNA delivery in living animals.
The inventors evaluated the mRNA delivery efficiency of amphiphile by i.m. injections of an amphiphile-complexed FLuc mRNA in anesthetized mice using BLI. Amphiphilic molecule stock solutions were prepared in DMSO as described above and diluted in a suitable buffer, such as PBS, or phosphate buffer enriched with inorganic salts. The solutions of mRNA/amphiphile complexes were freshly prepared prior to in vivo experiments. Amphiphile solutions in a suitable buffer, such as PBS, or phosphate buffer enriched with inorganic salts, were mixed with mRNA solutions in a suitable buffer, such as PBS, or phosphate buffer enriched with inorganic salts (1:1 volume ratio, final amount of mRNA per mice=5 μg/mouse). The mixture was shaken for 30 min at room temperature before injection. For each mouse, 5 μg mRNA was complexed with the best candidates obtained from the in vitro experiments, 7.3(Leu-His) with myristoleyl aldehyde (7.3(Leu-His) M) (FIG. 7) or with palmitoleyl aldehyde (7.3(Leu-His) PA) (FIG. 8), and administered by i.m. injection in the right flank in 50 μL of a suitable buffer, such as PBS, or phosphate buffer enriched with inorganic salts. As control, 5 μg of naked mRNA was injected in three mice. Luciferase expression was evaluated over 48 h, starting at 1 h after the administration of mRNA complexes. […] In contrast, i.m. injections of naked mRNA afforded only low levels of luciferase expression, as measured by photon flux, in all mice. The experiment was performed in, at least, triplicates (3 mice per condition).
After obtaining the conditions providing the highest expression, a second round of i.m. delivery of FLuc mRNA was performed to further optimize the formulation of the complexes. […]

Structure (SMILES): CCCC/C=C\CCCCCCCC=NNC(=O)CCCC(=O)NCCCC[C@H](NC(=O)[C@H](CCCCNC(=O)CCCC(=O)NN=CCCCCCCC/C=C\CCCC)NC(=O)[C@H](CCCNC(=N)N)NC(=O)[C@H](Cc1c[nH]cn1)NC(=O)[C@H](CCCCNC(=O)CCCC(=O)NN=CCCCCCCC/C=C\CCCC)NC(=O)[C@H](CCCNC(=N)N)NC(C)=O)C(=O)N[C@@H](Cc1c[nH]cn1)C(N)=O [7.3(Leu-His) M] (Ac-RK([Glutaryl-X1])HRK([Glutaryl-X1])K([Glutaryl-X1])H-NH2)
- tdTomato expression in organs [1]: expression of tdTomato protein was observed preferably in spleen and lungs, being more intense when using 5:1 mass ratio amphiphile:mRNA
- conditions giving highest bioluminescence (FLuc expression) ([2]; 2.5 μM amphiphile, 1.25, 3 or 5 μg/mouse FLuc mRNA): achieved with the complexes formed by 2.5 μM amphiphile and 5 μg/mouse of FLuc mRNA
- luciferase activity at the site of injection ([2]; 5 μg FLuc mRNA): High levels of luciferase activity
- time of peak luciferase expression ([2]; 5 μg FLuc mRNA, all concentrations tested (2.5, 5, 10 μM)): 7 h
